Four molecules from article doi:10.1101/2025.03.13.643086, “Granzyme-targeting quenched activity-based probes for assessing tumor response to immunotherapy” (bioRxiv, 2025) can be followed below.

Non-standard residues stand in square brackets, D forms with d. Residues, ends and D or L forms follow the SMILES beside them. *: point of attachment. Abu(4-SO3H) = N[C@@H](CCS(=O)(=O)O)C(=O)O; ACC = NC(=O)Cc1cc(=O)oc2cc(N*)ccc12; Cya = N[C@@H](CS(=O)(=O)O)C(=O)O

Data set [1] deals with recombinant human active GzmB (Homo sapiens, UniProt P10144). The data set can be described thus: Enzyme cleavage assay / Michaelis-Menten kinetics of fluorogenic substrates with GzmB. It counts as biochemical. The note with it: 10 nM GzmB. Here is the method: (§1) Figure 1. Isosteric substitution of carboxylic acid at P1 with sulfonic acid enhances selectivity for GzmB over Casp-8. (A) Chemical structures of tetrapeptide fluorogenic substrates 1-4. (B) Enzyme cleavage assay. 100 μM of each substrate was incubated with either recombinant human active GzmB (10 nM) or Casp-8 (5 nM) and fluorescence was measured at Ex/Em: 380/460 nm for 1 h. The initial velocity (V0) of each substrate was normalized to that of the control substrate Ac-IEPD-ACC (1). […] (C) Kinetic measurement. The Michaelis-Menten plot and kinetic parameters were generated with varying concentrations of each substrate 1 and 2 incubated with recombinant human active GzmB (10 nM) and Casp-8 (5 nM). […] (D) Chemical structures of inhibitors 5-7. (E) GzmB inhibition. Recombinant human active GzmB (2 U/μL) was incubated with varying concentrations of each inhibitor and the residual activity of GzmB was measured by the cleavage of Ac-IEPD-AMC fluorogenic substrate and normalized to DMSO control.
(§2) All kinetic experiments were performed on a spectrofluorometer (Biotek cytation5 or Synergy|Mx microplate reader) and analyzed using Microsoft Excel and GraphPad Prism. […]
(v/v) Tween-20, pH 7.5. Assay buffers were prepared at room temperature while the kinetic experiments were performed at 37 °C. Data are presented as the mean with standard deviation (at least two independent experiments). For kinetic experiments, pro-GzmB (0.22 mg/mL) was activated with mouse cathepsin C (22 µg/mL in 50 mM MES, 50 mM NaCl, pH 5.5) and diluted in assay buffer. Alternatively, active GzmB at 100 U/µL was purchased from Enzo Life Sciences (#BML-SE238-5000) and diluted in assay buffer. Conditions for individual experiments are […]
(§3) Figure 1B-C: 10 nM of active GzmB or 5 nM of Casp-8 were treated with different substrates (compounds 1-4) and recorded fluorescence (Ex/Em: 380/460 nm) for 1 h at 37 °C. To determine Michaelis-Menten constants, cleavage assays with 10 nM of GzmB or 5 nM of Casp-8 were performed with different concentrations of substrates 1 and 2. […]
(§4) Working concentrations were prepared by further diluting in the assay buffer before use. Mouse pro-GzmB (0.474 mg/mL) was also activated with mCatC (52.14 µg/mL in 50 mM MES, 50 mM NaCl, pH 5.5), diluted in assay buffer and stored as 500 nM aliquots at - 80 °C, which were further diluted in assay buffer to make final working concentrations. In-gel fluorescence images were acquired on a Typhoon FLA9500 instrument while western blot and Coomassie staining images were acquired on an AMHERST ImageQuant 800 instrument.

The target in a further data set is Casp-8 (Homo sapiens, UniProt Q14790). The data set can be described thus: Enzyme cleavage assay / Michaelis-Menten kinetics of fluorogenic substrates with Casp-8. It counts as biochemical. As to conditions: 100 μM substrate, 5 nM Casp-8, 1 h, V0 normalized to 1. As to the method:
as §1, §2
(§5) (v/v) Tween-20, pH 7.5. Assay buffers were prepared at room temperature while the kinetic experiments were performed at 37 °C. Data are presented as the mean with standard deviation (at least two independent experiments). […]
(§6) (#BML-SE238-5000) and diluted in assay buffer. Conditions for individual experiments are […]
as §3
Working concentrations were prepared by further diluting in the assay buffer before use. […] In-gel fluorescence images were acquired on a Typhoon FLA9500 instrument while western blot and Coomassie staining images were acquired on an AMHERST ImageQuant 800 instrument.

Substrate in data set [2]: CC[C@H](C)[C@H](NC(C)=O)C(=O)N[C@@H](CCC(=O)O)C(=O)N1CCC[C@H]1C(=O)N[C@@H](CC(=O)O)C(=O)Nc1ccc2c(CC(N)=O)cc(=O)oc2c1
The description is as above. The note with it: other: 5 nM Casp-8, varying substrate concentrations, 37 °C. The class given is biochemical, human. As to the method:
as §1, §2, §5, §6, §3, §4

Substrate in data set [3]: CC[C@H](C)[C@H](NC(C)=O)C(=O)N[C@@H](CCC(=O)O)C(=O)N1CCC[C@H]1C(=O)N[C@@H](CS(=O)(=O)O)C(=O)Nc1ccc2c(CC(N)=O)cc(=O)oc2c1
The description is as above. As to conditions: other: 5 nM Casp-8, varying substrate concentrations, 37 °C. It counts as biochemical, human. Here is the method: as §1, §2, §5, §6, §3, §4

Where [4] appears, read: 100 μM substrate, 1 h, V0 normalized to 1.

Chain of recombinant human active GzmB (P10144 21-247): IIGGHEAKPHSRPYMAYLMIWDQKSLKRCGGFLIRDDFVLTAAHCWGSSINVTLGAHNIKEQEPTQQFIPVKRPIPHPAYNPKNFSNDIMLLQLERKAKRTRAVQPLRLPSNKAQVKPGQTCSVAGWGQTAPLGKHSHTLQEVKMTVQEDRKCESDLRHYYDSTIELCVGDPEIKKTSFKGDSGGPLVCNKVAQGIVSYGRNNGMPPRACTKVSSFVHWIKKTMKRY

Consider `CC[C@H](C)[C@H](NC(C)=O)C(=O)N[C@@H](CCS(=O)(=O)O)C(=O)N1CCC[C@H]1C(=O)N[C@@H](CS(=O)(=O)O)C(=O)Nc1ccc2c(CC(N)=O)cc(=O)oc2c1` [Compound 4] (Ac-I[Abu(4-SO3H)]P[Cya]-{ACC}), for which the “cleavage by GzmB compared to Ac-IEPD-ACC (1), in words” value in data set [1] (setting [4]) was “routed for cleavage by GzmB”. For the same molecule, the “cleavage by Casp-8 compared to Ac-IEPD-ACC (1), in words” value at Casp-8 is “decreasing cross-reactivity with Casp-8”.

For `CC[C@H](C)[C@H](NC(C)=O)C(=O)N[C@@H](CCC(=O)O)C(=O)N1CCC[C@H]1C(=O)N[C@@H](CS(=O)(=O)O)C(=O)Nc1ccc2c(CC(N)=O)cc(=O)oc2c1` [Compound 2, Ac-IEPCya-ACC] (Ac-IEP[Cya]-{ACC}), the “increase in turnover (kcat) for GzmB compared to Ac-IEPD-ACC (1)” value in data set [1] is on record as 10 fold. The “cleavage efficiency by GzmB compared to Ac-IEPD-ACC (1)” value in data set [1] (setting [4]) is listed as 6 fold. Also, the “cleavage by Casp-8 compared to Ac-IEPD-ACC (1), in words” value on Casp-8 was “cleavage by Casp-8 was reduced”.

Take `CC[C@H](C)[C@H](NC(C)=O)C(=O)N[C@@H](CCS(=O)(=O)O)C(=O)N1CCC[C@H]1C(=O)N[C@@H](CC(=O)O)C(=O)Nc1ccc2c(CC(N)=O)cc(=O)oc2c1` [Compound 3] (Ac-I[Abu(4-SO3H)]PD-{ACC}): the “cleavage by GzmB compared to Ac-IEPD-ACC (1), in words” value in data set [1] (setting [4]) is given as “reduced cleavage by GzmB”. The “cleavage by Casp-8 compared to Ac-IEPD-ACC (1), in words” value at Casp-8 was “increased cleavage by Casp-8”.

B1: Casp-8 (Homo sapiens) (protein)
chain 1: SESQTLDKVYQMKSKPRGYCLIINNHNFAKAREKVPKLHSIRDRNGTHLDAGALTTTFEELHFEIKPHDDCTVEQIYEILKIYQLMDHSNMDCFICCILSHGDKGIIYGTDGQEAPIYELTSQFTGLKCPSLAGKPKVFFIQACQGDNYQKGIPVETD
chain 2: LSSPQTRYIPDEADFLLGMATVNNCVSYRNPAEGTWYIQSLCQSLRERCPRGDDILTILTEVNYEVSNKDDKKNMGKQMPQPTFTLRKKLVFPSD
For the molecule B1, in data set [2], the Km amounted to 359.9 µM, the kcat came to 0.090 s⁻¹ and the specificity constant (kcat/Km) amounted to 250 M⁻¹ s⁻¹. Besides, in data set [3], the Km stood at 506.3 µM, the kcat came out at 0.087 s⁻¹ and the kcat/Km was 172 M⁻¹ s⁻¹.
